# Assay results as given in patent publication US20230047313A1, “TREATING HEART DISEASE IN MUSCULAR DYSTROPHY PATIENTS” (Children`s Medical Center Corporation, priority 2019, published 2023).
# “Also recorded” adds a separate entry of the source.
# Legend:
# Format in all cases: in vivo, mouse
# CIP-KO/mdx dko mice = experiment: Oral gavage of Nox4 inhibitor in CIP-KO/mdx dko mice, cardiac function by echocardiography
# Source text: (§1) Nox4 inhibitor GKT 137831 was purchased from MilliporeSigma and dissolved in corn oil. Male mutation mice for both CIP and dystrophin genes (CIP-KO/mdx dko) were divided into four groups: • 1) group young control (3-month old mouse with corn oil); • 2) group young inhibitor (3-month old mouse with nox4 inhibitor); • 3) group old control (5-month old mouse with corn oil); • 4) group Old inhibitor (5-month old mouse with nox4 inhibitor) Male mutation mice for utrophin and dystrophin (c) were divided into two groups: • 1) group C: control (3-month old mouse with corn oil); • 2) group I: inhibitor (3-month old mouse with nox4 inhibitor); For all the animals in the inhibitor treatment group, the Nox4 Inhibitor (GKT137831 (SIGMA) diluted 1:100 in corn oil) was applied at the dosage of 60 mg/kg/day daily; control group was treated with corn oil only. Cardiac function was monitored using echocardiography before (pre-) and after Nox4 Inhibitor treatment at indicated times (weeks or months) and was presented as EF (ejection fraction) or FS % (fractional shortening), respectively. Utrn/mdx dko mice were sacrificed after final echocardiography measurement after 2 months. Histology was performed in the heart tissues and the expression of cardiac genes and fibronectin, a molecular marker for fibrosis, measured using real-time qPCR.
# Utrn/mdx dko mice [1] = experiment: Histology (Fast green/Sirius red staining) of heart sections of Utrn/mdx dko mice after Nox4 inhibitor treatment; conditions: 8 weeks after treatment, 60 mg/kg/day
# Source text: as §1, with “Male” for “Nox4 inhibitor GKT 137831 was purchased from MilliporeSigma and dissolved in corn oil. Male”
# Utrn/mdx dko mice [2] = experiment: Oral gavage of Nox4 inhibitor in Utrn/mdx dko mice, cardiac function by echocardiography; conditions: 60 mg/kg/day daily, 2, 4 and 8 weeks, both younger and older mice
# Procedure: Nox4 inhibitor GKT 137831 was purchased from MilliporeSigma and dissolved in corn oil. […] Cardiac function was monitored using echocardiography before (pre-) and after Nox4 Inhibitor treatment at indicated times (weeks or months) and was presented as EF (ejection fraction) or FS % (fractional shortening), respectively. Utrn/mdx dko mice were sacrificed after final echocardiography measurement after 2 months. Histology was performed in the heart tissues and the expression of cardiac genes and fibronectin, a molecular marker for fibrosis, measured using real-time qPCR.
# Utrn/mdx dko mice [3] = experiment: Quantitative real time PCR of fibronectin in hearts of Utrn/mdx dko mice after Nox4 inhibitor treatment; conditions: 8 weeks after treatment, 60 mg/kg/day
# Source text: as §1, with “Male” for “Nox4 inhibitor GKT 137831 was purchased from MilliporeSigma and dissolved in corn oil. Male”
smiles,measurement,setting,value
CN(C)c1cccc(-c2c3c(=O)n(-c4ccccc4Cl)[nH]c3cc(=O)n2C)c1 [GKT137831],"left ventricle dilation (LVID), echocardiography","CIP-KO/mdx dko mice; CIP-KO:mdx mice, 60 mg/kg/day daily, both younger (start 3 months old) and older (start 5 months old) mice",reduced the left ventricle dilation (LVID)
same,"cardiac function (Ejection Fraction, EF), echocardiography","CIP-KO/mdx dko mice; CIP-KO:mdx mice, 60 mg/kg/day daily, both younger (start 3 months old) and older (start 5 months old) mice, 60 mg/kg/day",preserved cardiac function; also recorded: improves cardiac function
same,cardiac fibrosis,"CIP-KO/mdx dko mice; mdx/CIP-KO mice as worded in the summary sentence, 60 mg/kg/day daily",reduces cardiac fibrosis
same,dystrophic cardiomyopathy,"CIP-KO/mdx dko mice; mdx/CIP-KO mice, 60 mg/kg/day daily",potently ameliorated dystrophic cardiomyopathy
same,development of heart failure,"CIP-KO/mdx dko mice; mdx/CIP-KO mice, 60 mg/kg/day daily oral gavage, 60 mg/kg/day",preventing the development of heart failure; also recorded: potently prevents the development of heart failure
same,"formation of cardiac fibrosis and scars, Fast green/Sirius red staining",Utrn/mdx dko mice [1],decreased the formation of cardiac fibrosis and the formation of scars
same,"size of the left ventricle dimension, histological analysis",Utrn/mdx dko mice [1],reduced the size of the left ventricle dimension
same,"cardiac function (Ejection Fraction, EF; Fractional Shortening, FS %), echocardiography",Utrn/mdx dko mice [2],preserved cardiac function
same,"left ventricle dilation (LVID), echocardiography",Utrn/mdx dko mice [2],reduced the left ventricle dilation (LVID)
same,"fibronectin expression in the hearts, qPCR",Utrn/mdx dko mice [3],reduced fibronectin expression
